This passage reports MIC and IC50 results from patent US20260365641A1, “Aromatic Acetylene Derivative, Preparation Method Therefor, And Use Thereof” (Zhejiang Hisun Pharmaceutical Co., Ltd., priority 2022, published 2026).

Values after ≈ are worked out from the molar mass of the structure shown.

By MIC is commonly meant the lowest concentration found to suppress growth. A higher MIC goes with a less susceptible organism. What is called IC50 is the midpoint of a concentration-inhibition curve.

The first assay relates to E. coli ATCC 25922. The assay can be described thus: Antibacterial activity, minimum inhibitory concentration (MIC) in vitro, broth dilution. In kind it is cell-based. The following applies: Escherichia coli, ATCC25922, 5×10^5 cfu/mL, 35 °C, 18-24 hours. As for the experimental part:
(§1) The minimum inhibitory concentration (MIC) in vitro was determined according to CLSI's guidelines, and a minimal broth dilution method was used.
(§2) The test process was briefly described as follows: the tested compound was dissolved in DMSO to prepare a storage solution of […], and then prepared into 11 two-fold-diluted 100× high-concentration working liquids (a final concentration of the system was 64 μg/mL to 0.06 μg/mL) by DMSO. Stains (K. pneumoniae ATCC13883, K. pneumoniae ATCC51504 and E. coli ATCC 25922) frozen at −80 °C with glycerin were inoculated to a solid agar culture medium, placed into an incubator for culturing for 18-24 hours at 35 °C to finish the preparation work of the strains. A proper amount of solid plate culture was collected, re-suspended in normal saline, and uniformly mixed. The turbidity of the bacterial suspension was adjusted to a proper turbidity by a turbidity meter, containing about 1×10^8 cfu/mL of bacteria. Then, the turbidity-regulated bacterial suspension was diluted with a test culture medium (type: CAMHIIB, purchased from BD company) to a bacterial concentration of 5×10^5 cfu/mL, thus finishing the preparation of an inoculation solution. 198 μL of the inoculation solution was inoculated into a 96-well plate, and added with 2 μL 100× high concentration working liquid of the compound, then the 96-well plate was placed at 35 °C for culturing for 18-24 hours.
Compound `C[C@H](O)c1nccn1Cc1cc(-c2ccc(C#CC3=CCN(C(=O)Cn4cncn4)CC3)cc2)on1` [Example 37, (S)-1-(4-((4-(3-((2-(1-hydroxyethyl)-1H-imidazol-1-yl)methyl)isoxazol-5-yl)phenyl)ethynyl)-3,6-dihydropyridin-1(2H)-yl)-2-(1H-1,2,4-triazol-1-yl)ethan-1-one] yielded an MIC of 2 µg/mL (≈ 4.14 µM).

In the next assay the test system is K. pneumoniae ATCC51504. The description is as above. Format: cell-based. To be noted: Klebsiella pneumoniae, 5×10^5 cfu/mL, 35 °C, 18-24 hours. As for the experimental part: as §1, §2
In turn, `C[C@H](O)c1nccn1Cc1cc(-c2ccc(C#CC3=CCN(C(=O)Cn4cncn4)CC3)cc2)on1` [Example 37, (S)-1-(4-((4-(3-((2-(1-hydroxyethyl)-1H-imidazol-1-yl)methyl)isoxazol-5-yl)phenyl)ethynyl)-3,6-dihydropyridin-1(2H)-yl)-2-(1H-1,2,4-triazol-1-yl)ethan-1-one] gave an MIC of 2 µg/mL (≈ 4.14 µM).

The target in another assay is T1, recombinant Pseudomonas aeruginosa LpxC (Pseudomonas aeruginosa, UniProt P47205).
T1 construct: purchased Signalway Antibody AP74647-2
T1 sequence (P47205 1-303): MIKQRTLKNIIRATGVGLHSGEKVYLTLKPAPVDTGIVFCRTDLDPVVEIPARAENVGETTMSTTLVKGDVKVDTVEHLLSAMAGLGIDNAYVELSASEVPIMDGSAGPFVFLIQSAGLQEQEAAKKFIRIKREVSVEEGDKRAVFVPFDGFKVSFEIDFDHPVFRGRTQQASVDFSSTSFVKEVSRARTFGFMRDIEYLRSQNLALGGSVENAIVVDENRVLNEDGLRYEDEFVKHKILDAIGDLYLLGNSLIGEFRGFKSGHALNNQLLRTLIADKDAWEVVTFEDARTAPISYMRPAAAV
Description: Inhibition of enzymatic activity of recombinant Pseudomonas aeruginosa LpxC in vitro. In kind it is biochemical. The following applies: 5 nM LpxC; substrate UDP-3-O—(R-3-hydroxydecanoyl)-GlcNAc; 25 °C, 120 minutes; fluorescamine readout. The method, then:
The following method was used to determine degrees of inhibition of the compounds of the present invention on the enzymatic activity of recombinant Pseudomonas aeruginosa LpxC in vitro.
The test process was briefly described as follows: the tested compound was first dissolved in DMSO to prepare a 10 mM storage solution. The reaction was carried out in a 96-well microplate. Firstly, 20 μL of recombinant Pseudomonas aeruginosa LpxC (purchased from Signalway Antibody, article number AP74647-2) was added into the wells, and the final concentrations were 5 nM respectively. 5 μL of the compound to be tested was added, diluted in 4-fold, with 8 concentration points, and the concentration range was 0.61-10000 nM. 5 μL of LpxC substrate UDP-3-O—(R-3-hydroxydecanoyl)-GlcNAc (purchased from Biosynth Carbosynth, article number mu75071) was added, wherein a final concentration of the substrate was […], and the substrate was incubated at 25 °C for 120 minutes. Subsequently, 20 μL of 2.0 mg/mL fluorescamine (purchased from sigma aldrich, article number F9015, wherein a solvent was dimethylformamide/acetonitrile (1:1)) was added to the reaction system, mixed evenly and reacted for 10 minutes. Finally, 50 μL of 200 mM sodium phosphate buffer solution (pH 8.0) was added to stop the reaction, and a microplate reader (BMG) was used for reading. An excitation wavelength and an emission wavelength were 390 nm and 495 nm respectively. Compared with the fluorescence intensity ratio of a control group (0.1% DMSO), the percentage inhibition rates of the compounds at each concentration were calculated, and the IC50 values of the compounds were obtained by performing nonlinear regression analysis with logarithmic value of the compound concentration-inhibition rate by GraphPad Prism 5 software, which can be seen in Table 1.
Regarding `C[C@H](O)c1nccn1Cc1cc(-c2ccc(C#CC3CC4(C3)CN(C(=O)CC#N)C4)cc2)on1` [Example 32, (S)-3-(6-((4-(3-((2-(1-hydroxyethyl)-1H-imidazol-1-yl)methyl)isoxazol-5-yl)phenyl)ethynyl)-2-azaspiro[3.3]heptan-2-yl)-3-oxopropanenitrile], the IC50 came out at 22.5 nM.
In the case of `C[C@H](O)c1nccn1Cc1cc(-c2ccc(C#CC3CC4(CCN(C(=O)CC(N)=O)CC4)C3)cc2)on1` [Example 15, (S)-3-(2-((4-(3-((2-(1-hydroxyethyl)-1H-imidazol-1-yl)methyl)isoxazol-5-yl)phenyl)ethynyl)-7-azaspiro[3.5]nonan-7-yl)-3-oxopropanamide], the IC50 stood at 4.42 nM.
Turning to `C[C@H](O)c1nccn1Cc1cc(-c2ccc(C#CC3CC4(CCN(C(=O)CO)C4)C3)cc2)on1` (stereo partly drawn) [Example 28, (S)-2-hydroxy-1-(2-((4-(3-((2-(1-hydroxyethyl)-1H-imidazol-1-yl)methyl)isoxazol-5-yl)phenyl)ethynyl)-6-azaspiro[3.4]octan-6-yl)ethan-1-one], the IC50 is 14.1 nM.
On the same count and under the same terms, to `C[C@H](O)c1nccn1Cc1cc(-c2ccc(C#CC3CC4(CCN(C(N)=O)C4)C3)cc2)on1` (stereo partly drawn) [Example 24, (S)-2-((4-(3-((2-(1-hydroxyethyl)-1H-imidazol-1-yl)methyl)isoxazol-5-yl)phenyl)ethynyl)-6-azaspiro[3.4]octane-6-carboxamide] belongs 6.9 nM; to `C[C@H](O)c1nccn1Cc1cc(-c2ccc(C#CC3CC4(CCN(CCC(N)=O)CC4)C3)cc2)on1` [Example 9, (S)-3-(2-((4-(3-((2-(1-hydroxyethyl)-1H-imidazol-1-yl)methyl)isoxazol-5-yl)phenyl)ethynyl)-7-azaspiro[3.5]nonan-7-yl)propanamide], 18.8 nM; to `C[C@H](O)c1nccn1Cc1cc(-c2ccc(C#CC3CC4(CCN(CC(=O)O)CC4)C3)cc2)on1` [Example 10, (S)-2-(2-((4-(3-((2-(1-hydroxyethyl)-1H-imidazol-1-yl)methyl)isoxazol-5-yl)phenyl)ethynyl)-7-azaspiro[3.5]nonan-7-yl)acetic acid], 22.8 nM.
The same measure, in the same setting: the figure for `C[C@H](O)c1nccn1Cc1cc(-c2ccc(C#CC3CC4(CCNCC4)C3)cc2)on1` [Example 1, (S)-1-(1-((5-(4-((7-azaspiro[3.5]nonan-2-yl)ethynyl)phenyl)isoxazol-3-yl)methyl)-1H-imidazol-2-yl)ethan-1-ol] is 9.46 nM.
Still for that read-out and setting: the figure for `C[C@H](O)c1nccn1Cc1cc(-c2ccc(C#CC3CC4(CCN(C(=O)CN)CC4)C3)cc2)on1` [Example 16, (S)-2-amino-1-(2-((4-(3-((2-(1-hydroxyethyl)-1H-imidazol-1-yl)methyl)isoxazol-5-yl)phenyl)ethynyl)-7-azaspiro[3.5]nonan-7-yl)ethan-1-one] is 10.3 nM.
As for `C[C@H](O)c1nccn1Cc1cc(-c2ccc(C#CC3CC4(CCN(C(=O)CC(=O)O)CC4)C3)cc2)on1` [Example 14, (S)-3-(2-((4-(3-((2-(1-hydroxyethyl)-1H-imidazol-1-yl)methyl)isoxazol-5-yl)phenyl)ethynyl)-7-azaspiro[3.5]nonan-7-yl)-3-oxopropanoic acid], the IC50 is 6.81 nM.
Consider `C[C@H](O)c1nccn1Cc1cc(-c2ccc(C#CC3CC4(C3)CN(Cc3ncc[nH]3)C4)cc2)on1` [Example 46, (S)-1-(1-((5-(4-((2-((1H-imidazol-2-yl)methyl)-2-azaspiro[3.3]heptan-6-yl)ethynyl)phenyl)isoxazol-3-yl)methyl)-1H-imidazol-2-yl)ethan-1-ol], for which the IC50 was 21.5 nM.
Take `C[C@H](O)c1nccn1Cc1cc(-c2ccc(C#CC3CC4(CCN(CCO)CC4)C3)cc2)on1` [Example 11, (S)-2-(2-((4-(3-((2-(1-hydroxyethyl)-1H-imidazol-1-yl)methyl)isoxazol-5-yl)phenyl)ethynyl)-7-azaspiro[3.5]nonan-7-yl)ethan-1-ol]: the IC50 came to 8.66 nM.
The same measure, in the same setting: to `C[C@H](O)c1nccn1Cc1cc(-c2ccc(C#CC3CC4(CCN(C5CNC5)CC4)C3)cc2)on1` [Example 30, (S)-1-(1-((5-(4-((7-(azetidin-3-yl)-7-azaspiro[3.5]nonan-2-yl)ethynyl)phenyl)isoxazol-3-yl)methyl)-1H-imidazol-2-yl)ethan-1-ol] belongs 16.2 nM.
Still for that read-out and setting: to `C[C@H](O)c1nccn1Cc1cc(-c2ccc(C#CC3CC4(CCN(CCC(=O)O)CC4)C3)cc2)on1` [Example 5, (S)-3-(2-((4-(3-((2-(1-hydroxyethyl)-1H-imidazol-1-yl)methyl)isoxazol-5-yl)phenyl)ethynyl)-7-azaspiro[3.5]nonan-7-yl)propanoic acid] belongs 7.03 nM; to `C[C@H](O)c1nccn1Cc1cc(-c2ccc(C#CC3CC4(C3)CN(C(=O)C3CCNC(=O)C3)C4)cc2)on1` (stereo partly drawn) [Example 54, 4-(6-((4-(3-((2-((S)-1-hydroxyethyl)-1H-imidazol-1-yl)methyl)isoxazol-5-yl)phenyl)ethynyl)-2-azaspiro[3.3]heptane-2-carbonyl)piperidin-2-one], 15.5 nM.
As for `C[C@H](O)c1nccn1Cc1cc(-c2ccc(C#CC3CC4(CCN(CCCC(N)=O)CC4)C3)cc2)on1` [Example 8, (S)-4-(2-((4-(3-((2-(1-hydroxyethyl)-1H-imidazol-1-yl)methyl)isoxazol-5-yl)phenyl)ethynyl)-7-azaspiro[3.5]nonan-7-yl)butanamide], the 50% inhibitory concentration (IC50) came out at 19.3 nM.
The same measure, in the same setting: the figure for `C[C@H](O)c1nccn1Cc1cc(-c2ccc(C#CC3CC4(CCN(CCCC(=O)O)C4)C3)cc2)on1` (stereo partly drawn) [Example 4, (S)-4-(2-((4-(3-((2-(1-hydroxyethyl)-1H-imidazol-1-yl)methyl)isoxazol-5-yl)phenyl)ethynyl)-6-azaspiro[3.4]octan-6-yl)butanoic acid] is 23.4 nM; for `C[C@H](O)c1nccn1Cc1cc(-c2ccc(C#CC3CC4(CCN(C(=O)[C@@H](N)CO)CC4)C3)cc2)on1` [Example 18, (S)-2-amino-3-hydroxy-1-(2-((4-(3-((2-((S)-1-hydroxyethyl)-1H-imidazol-1-yl)methyl)isoxazol-5-yl)phenyl)ethynyl)-7-azaspiro[3.5]nonan-7-yl)propan-1-one] it is 4.42 nM.
Turning to `C[C@H](O)c1nccn1Cc1cc(-c2ccc(C#CC3CC4(C3)CN(C(=O)N3CCC(O)CC3)C4)cc2)on1` [Example 51, (S)-(6-((4-(3-((2-(1-hydroxyethyl)-1H-imidazol-1-yl)methyl)isoxazol-5-yl)phenyl)ethynyl)-2-azaspiro[3.3]heptan-2-yl)(4-hydroxypiperidin-1-yl)methanone], the IC50 is 15.1 nM.
For `C[C@H](O)c1nccn1Cc1cc(-c2ccc(C#CC3CC4(C3)CN(C(=O)NCCO)C4)cc2)on1` [Example 50, (S)-N-(2-hydroxyethyl)-6-((4-(3-((2-(1-hydroxyethyl)-1H-imidazol-1-yl)methyl)isoxazol-5-yl)phenyl)ethynyl)-2-azaspiro[3.3]heptane-2-carboxamide], the IC50 was 23.5 nM.
